# Assay results as given in US6696495B2, “Treatment of disorders secondary to organic impairments” (Snowden Pharmaceuticals, LLC, priority 1998, dated 2004).
# Read-outs that look alike come from different tables or passages of the source.
# Key:
# [1] = test system: Asocial Behavior, Violence, and Hyposexuality; assay: Case history 10, Sibutramine Patient No. 54; type: in vivo, human
# Huntington's Disease = assay: Case history 12, Sibutramine Patient No. 113; type: in vivo, human
# Gulf War Syndrome (GWS) = assay: Case history 19; type: in vivo, human; details: 10 mg. b.i.d. of sibutramine; veteran
# Heroin Craving and Abuse = type: in vivo, human
# Description: 21. Relief of Heroin Craving and Abuse (Problem No. 12) Sibutramine Patient No. 165
# A single person was introduced to heroin by snorting when they were particularly stressed with the anger and pain of losing a boyfriend. They had always had difficulty recovering from pain, anger and loss but the heroin rapidly made them feel “normal”. They quickly moved to the intravenous route and reached a maximum intake of 5 bags per day (approximately $100/day in cost) for the next 6 months when they were discovered to have charged large amounts on their charge cards. They were then hospitalized in a drug detoxification hospital for three weeks but soon relapsed after discharge. After their second round of treatment they were referred to the care of a psychiatrist (the inventor herein). The patient described constant, unrelenting cravings for heroin and expressed that it would be “next to impossible” to remain free of the drug for any length of time. […] Out of desperation, the dose was increased to 15 mg in the AM and within an hour they noted a marked change. […] They now felt the “normal” feeling that heroin had given them and no longer noted any anger, hurt or distress.
# They gained 15 pounds the first 2 weeks on the 15 mg of sibutramine in the morning. This was partially relieved by adding a 5 mg dose of sibutramine in the afternoon. This effect on the heroin craving and hurt is therefore clearly separate from the FDA-approved anorexic effect of sibutramine. […] They are now working at two jobs to pay their back debts.
# [2] = test system: Dementia, Alzheimer's-Type; assay: Case history 24; type: in vivo, human
# Protocol: 24. The Symptoms Due to Dementia, Alzheimer's-Type
# person one was diagnosed with Dementia. The symptoms they suffered from included memory loss and severe confusion. They tried a variety of treatments to relieve their symptoms including choldine esterase inhibitors, antidepressants, Ritilin, and aterol. […] They were then tested off of sibutramine. […] They began to suffer from a lowered I.Q. and their memory deteriorated.
# [3] = Overall clinical observations in the patients treated with sibutramine; type: in vivo, human
# Description: The term sibutramine as used herein means compounds of sibutramine hydrochloride monohydrate, more specifically N,N-dimethyl-1-[1-(4-chlorophenyl)cyclobutyl]-3-methylbutylamine hydrochloride preferably in its monohydrate form, and enantiomers and analogues thereof, as described in U.S. Pat. Nos. 4,746,680, 4,929,629 and 5,436,272. Sibutramine is believed to inhibit reuptake of norepinephrine, serotonin and dopamine thereby intensifying their effects in the brain. Sibutramine is commercially available as MERIDIA®, Knoll Pharmaceutical Company, Mount Olive, N.J. Capsules are presently available with discrete dosages of 5, 10 and 15 mg for oral administration. The sibutramine is administered in a pharmaceutically active dose. The preferred dosage is about 5 mg three times a day but there is variation between patients for the best dose. It is believed that the cytochrome P450 system differs in individuals and the dose must be determined empirically in each patient. The effect of the cytochrome P450 system on metabolism of psychotropic drugs is discussed in “Intercom: The Experts Converse”, published by The Journal of Clinical Psychiatry, November 1995. […] It is possible that higher or lower doses can be used depending upon each individual. Therefore, more flexibility in available dosage is needed. Furthermore, means of administration such as injection, rectal suppository, or transdermal patches may be utilized. Finally, a long-acting slow-release means such as oral tablet or capsule would be the preferred route in view of the rapid metabolism noted (5 hour duration of action usually) in most of the patients.
# Although the use of sibutramine has been described for the treatment of conditions such as obesity, depression, diabetic hyperglycemia, hyperlipidemia, senile dementia and related conditions, and Parkinson's disease, it has been discovered that sibutramine can be successfully used in treating other problems unrelated to these conditions. […] For example, patients with ADD previously treated with stimulants found it easier to eat when treated with sibutramine and gained weight. […] It was generally necessary to continue anti-depressant therapy along with the sibutramine therapy.
# Above and beyond the known effects of sibutramine on serotonin, dopamine and norepinephrine activation, there is believed to be an effect of this medication on the endorphic opiate neurotransmitter system which is evident in the patients who have been relieved of pain, rage, anger, self-mutilation and particularly addiction to heroin. […] It would appear that sibutramine activates endorphins or, at the very least, modifies the endorphinergic opioid systems to promote serenity and lack of pain and stress, and to reduce craving for heroin. Such a mechanism which was previously unsuspected may have also contributed to the therapeutic effects of sibutramine herein described for PTSD, asocial behavior and fibromyalgic pain which have not been helped by serotonin, dopamine and norepinephrine potentiators. This is in contradistinction to the therapeutic effects of sibutramine on ADHD, chronic fatigue, and the symptoms of Tourette's and non-Tourette's diseases. Finally, a differentiation between the serotonin, dopamine and norepinephrine potentiation versus the opiate-like therapeutic effects of sibutramine may be made in terms of duration of action, whereas the serotonin, dopamine, norepinephrine agonist effects lasted in most patients for only 4-6 hours (therefore requiring tid dosage), the opiate effects appear to last all day and require only a single AM dosage.
# These benefits were lost rapidly when either the patient was taken off sibutramine or when steroids, such as cortisone were concomitantly administered.
# [4] = test system: Non-Tourette's tics, obsessive-compulsive rituals, and attention deficit hyperactive disorder (ADHD)
# [5] = test system: frontal lobe executive function, ADHD, and hyposexuality
structure (smiles),measurement,setting,value
"CC(C)CC(N(C)C)C1(c2ccc(Cl)cc2)CCC1.Cl (stereo not drawn) [sibutramine, N,N-dimethyl-1-[1-(4-chlorophenyl)cyclobutyl]-3-methylbutylamine hydrochloride]","speech, compulsive acts, social activity, sexual interest",[1]; sibutramine 5 mg tid,"a decrease in repetitive speech, hissing, and compulsive acts, an increase in social activity and sexual interest, and increased speech generally"
same,violence / manageability,"[1]; sibutramine 10 mg daily, person",again became calm and manageable
same,ataxic gait with continued treatment,"Huntington's Disease; gradually, continued sibutramine",improvements in their ataxic gait
same,time to relief after the first capsule,Huntington's Disease; sibutramine 5 mg,≤ 20 min
same,"cognitive, emotional, behavioral problems and ataxic gait","Huntington's Disease; sibutramine 5 mg three times a day, first capsule, person","complete relief of the cognitive, emotional, and behavioral problems but not with the ataxic gait"
same,"pain, cognitive problems, confusion",Gulf War Syndrome (GWS),"rapidly repaired their pain, cognitive problems, and confusion"
same,“nodding out” side effects,Heroin Craving and Abuse; compared with heroin,none of the negative “nodding out” side effects
same,weight gain,Heroin Craving and Abuse; first 2 weeks on 15 mg in the morning,15 pounds
same,"anger, hurt and narcotic craving","Heroin Craving and Abuse; sibutramine 5 mg tid po, person",no relief from their anger and hurt nor from their narcotic craving
same,"anger, hurt and narcotic craving",Heroin Craving and Abuse; sibutramine 15 mg in the AM,a complete relief
same,duration of effect,Heroin Craving and Abuse; sibutramine 15 mg in the AM,extended for the whole day
same,time to marked change,Heroin Craving and Abuse; sibutramine 15 mg in the AM,an hour
same,side effects,Heroin Craving and Abuse; sibutramine 15 mg in the morning,a dry mouth and a craving for food
same,memory loss and severe confusion,"[2]; sibutramine 15 mg once a day, person one",their symptoms quickly dissipated
same,symptoms off sibutramine,[2]; taken off sibutramine,their symptoms reappeared
same,highest dose,[3]; 15 mg 3 times daily,45 mg
same,neurogenesis,"[3]; believed, evidenced by increase in the hippocampus, enhanced mental and motor skills",induced neurogenesis
same,lowest effective dose,"[3]; human, in vivo",0.25 mg daily
same,onset of improvement,"[3]; human, in vivo",alleviated within minutes or hours of treatment
same,"duration of serotonin, dopamine, norepinephrine agonist effects",[3]; most patients,4 to 6 h
same,depression,[3]; patients removed from anti-depressant medication,became depressed when removed from the anti-depressant medication and treated with sibutramine alone
same,symptoms of Post Traumatic Stress,[3]; patients with Post Traumatic Stress,relieved the symptoms of Post Traumatic Stress
same,duration of opiate effects,[3]; single AM dosage,last all day
same,duration of action,"[3]; usually, in most of the patients",5 h
same,tics and OCD symptoms,"[4]; sibutramine 5 mg tid, child","stopped both the tics and the OCD symptoms, but only for a few hours"
same,effect of missing a single dose,[4]; sibutramine 10 mg tid,the vocal and motor tics return immediately
same,sleep and appetite,[4]; sibutramine 10 mg tid,Sleep and appetite were not affected
same,tics and OCD symptoms,[4]; sibutramine 10 mg tid,free of symptoms throughout the day
same,concentration at school,"[4]; sibutramine 10 mg tid, versus dextroamphetamine, methylphenidate, pemoline",better than with any of the analeptics
same,sexual drive after radical prostatectomy,[5]; sibutramine,this problem of sexual drive was repaired
same,efficacy after dose decrease,"[5]; sibutramine 5 mg bid, pemoline and methylphenidate discontinued",without a loss of efficacy
same,side effects,[5]; sibutramine 10 mg. bid,dry mouth and some insomnia
same,concentration and ability to plan,[5]; sibutramine 10 mg. bid p.o. Person,"immediate repair of concentration, and particularly their ability to plan and carry out these plans effectively"
